The text below walks through data of patent US8952024B2, “Herbicidal pyrimidone derivatives” (E I du Pont de Nemours and Company, priority 2009, dated 2015).

Like-named read-outs stand apart in the source and are kept apart here.

What all share (test): Test B flooded paddy test
Assay type in all cases: in vivo

Assay [1] has as its system barnyardgrass (Echinochloa crus-galli). To be noted: for pest or weed control at 250 g/ha / pest or weed control at 62 g/ha / pest or weed control at 125 g/ha / pest or weed control at 31 g/ha: Echinochloa crus-galli, 360 h; for pest or weed control at 250 g/ha: read-out: Plant response rating, Flood, Barnyardgrass; for pest or weed control at 62 g/ha / pest or weed control at 125 g/ha / pest or weed control at 31 g/ha / Plant response rating, Barnyardgrass: Flood (flooded paddy test), 13 to 15 days; for pest or weed control at 62 g/ha / pest or weed control at 125 g/ha / pest or weed control at 31 g/ha: read-out: Plant response rating, Barnyardgrass. A digest of the protocol: (§1)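 Seedlings reaching 2 leaves are flooded 3 cm deep; test material is delivered to that water, which stays at the same depth. Plants remain in a greenhouse 13–15 days and are then scored by eye versus controls from 0 to 100.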

The test system of assay [2] is ducksalad (Heteranthera limosa). To be noted: for pest or weed control at 250 g/ha / pest or weed control at 62 g/ha / pest or weed control at 125 g/ha / pest or weed control at 31 g/ha: Heteranthera limosa, 360 h; for pest or weed control at 250 g/ha: read-out: Plant response rating, Flood, Ducksalad; for pest or weed control at 62 g/ha / pest or weed control at 125 g/ha / pest or weed control at 31 g/ha / Plant response rating, Ducksalad: Flood (flooded paddy test), 13 to 15 days; for pest or weed control at 62 g/ha / pest or weed control at 125 g/ha / pest or weed control at 31 g/ha: read-out: Plant response rating, Ducksalad. A digest of the protocol:
as §1

Assay [3] relates to rice (Oryza sativa). To be noted: for plant injury at 250 g/ha / plant injury at 62 g/ha / plant injury at 125 g/ha / plant injury at 31 g/ha: Oryza sativa; for plant injury at 250 g/ha: read-out: Plant response rating, Flood, Rice; for plant injury at 62 g/ha / plant injury at 125 g/ha / plant injury at 31 g/ha / Plant response rating, Rice: Flood (flooded paddy test), 13 to 15 days; for plant injury at 62 g/ha / plant injury at 125 g/ha / plant injury at 31 g/ha: read-out: Plant response rating, Rice. A digest of the protocol: as §1

Assay [4] relates to umbrella sedge (Cyperus difformis). To be noted: for pest or weed control at 250 g/ha / pest or weed control at 62 g/ha / pest or weed control at 125 g/ha / pest or weed control at 31 g/ha: Cyperus difformis, 360 h; for pest or weed control at 250 g/ha: read-out: Plant response rating, Flood, Sedge, Umbrella; for pest or weed control at 62 g/ha / pest or weed control at 125 g/ha / pest or weed control at 31 g/ha / Plant response rating, Sedge, Umbrella: Flood (flooded paddy test), 13 to 15 days; for pest or weed control at 62 g/ha / pest or weed control at 125 g/ha / pest or weed control at 31 g/ha: read-out: Plant response rating, Sedge, Umbrella. The essentials: as §1

The mark [5] stands for this setting: 250 g ai/ha, flooded paddy test, visual rating on 0 to 100 scale (0 no effect, 100 complete control) after 13 to 15 days.
Where [6] appears, read: 62 g ai/ha, scale of 0 to 100 where 0 is no effect and 100 is complete control.
[7] abbreviates: 125 g ai/ha, scale 0 to 100, 0 is no effect, 100 is complete control.
The mark [8] stands for this setting: Flood, 31 g ai/ha, scale 0 to 100 (0 no effect, 100 complete control).
[9] abbreviates: 31 g ai/ha, scale of 0 to 100 where 0 is no effect and 100 is complete control.
The mark [10] stands for this setting: 62 g ai/ha, scale 0 to 100, 0 is no effect, 100 is complete control.

In the case of `O=C(c1cnoc1C1CC1)c1cnc(-c2ccccc2)n(-c2ccccc2)c1=O` [Compound 223, 5-[(5-cyclopropyl-4-isoxazolyl)-carbonyl]-2,3-diphenyl-4(3H)-pyrimidinone], the pest or weed control at 250 g/ha in assay [1] (setting [5]), in assay [2] (setting [5]) and in assay [4] (setting [5]) was 0% each time. The pest or weed control at 62 g/ha in assay [1] (setting [6]), in assay [2] (setting [6]) and in assay [4] (setting [6]) was 0% each time. In addition, the pest or weed control at 125 g/ha in assay [1] (setting [7]), in assay [2] (setting [7]) and in assay [4] (setting [7]) was 0% each time. In addition, the “Barnyardgrass plant response rating” value in assay [1] (setting [8]) was 0. In assay [2] (setting [8]), the “Ducksalad plant response rating” value came to 0. Also, in assay [3] (setting [8]), the “Rice plant response rating” value came to 0. Besides, the plant injury at 250 g/ha in assay [3] (setting [5]) stood at 0%. For the same compound, the plant injury at 62 g/ha in assay [3] (setting [6]) was 0%. For the same compound, the plant injury at 125 g/ha in assay [3] (setting [7]) came to 0%. Besides, in assay [4] (setting [8]), the “Sedge, Umbrella plant response rating” value is recorded as 0.

For the compound `CCn1ncc(C(=O)c2cnc(-c3ccccc3)n(Cc3ccccc3)c2=O)c1OS(=O)(=O)c1ccc(C)cc1` [Compound 21, 5-[[1-ethyl-5-[[(4-methylphenyl)sulfonyl]oxy]-1H-pyrazol-4-yl]carbonyl]-2-phenyl-3-(phenylmethyl)-4(3H)-pyrimidinone], the pest or weed control at 250 g/ha in assay [1] (setting [5]) was determined as 0%; in assay [2] (setting [5]) it was 75%; in assay [4] (setting [5]) it was 65%. Moreover, the pest or weed control at 31 g/ha was determined as 0% in assay [1] (setting [9]), 60% in assay [2] (setting [9]) and 40% in assay [4] (setting [9]). Besides, the pest or weed control at 62 g/ha in assay [1] (setting [10]) was 0%; in assay [2] (setting [10]), 70%; in assay [4] (setting [10]), 50%. In addition, the pest or weed control at 125 g/ha in assay [1] (setting [7]) was 0%; in assay [2] (setting [7]), 70%; in assay [4] (setting [7]), 60%. The plant injury at 250 g/ha in assay [3] (setting [5]) is 0%. For the same compound, in assay [3] (setting [9]), the plant injury at 31 g/ha was found to be 0%. Besides, in assay [3] (setting [10]), the plant injury at 62 g/ha is 0%. The plant injury at 125 g/ha in assay [3] (setting [7]) was found to be 0%.

For `COc1cccc(-n2c(-c3ccccc3)ncc(C(=O)C3=C(O)CCCC3=O)c2=O)c1` [Compound 19], the “Plant response rating, Flood, Barnyardgrass” value in assay [1] (setting [5]) is given as 15. Moreover, the “Plant response rating, Barnyardgrass” value in assay [1] (setting [9]), in assay [1] (setting [10]) and in assay [1] (setting [7]) was 0 throughout. Further, the “Plant response rating, Flood, Ducksalad” value in assay [2] (setting [5]) worked out at 90. The entries for the “Plant response rating, Ducksalad” value in assay [2] (setting [9]), in assay [2] (setting [10]) and in assay [2] (setting [7]) were 0, 75 and 85, respectively. Also, the “Plant response rating, Flood, Rice” value in assay [3] (setting [5]) is given as 0. Further, the “Plant response rating, Rice” value in assay [3] (setting [9]), in assay [3] (setting [10]) and in assay [3] (setting [7]) was 0 each time. Besides, the “Plant response rating, Flood, Sedge, Umbrella” value in assay [4] (setting [5]) was found to be 95. Also, the “Plant response rating, Sedge, Umbrella” value in assay [4] (setting [9]) was found to be 0; in assay [4] (setting [10]), 70; in assay [4] (setting [7]) it was 85.

In the case of `CCn1ncc(C(=O)c2cnc(-c3ccccc3)n(Cc3ccccc3)c2=O)c1O` [Compound 20, 5-[(1-ethyl-5-hydroxy-1H-pyrazol-4-yl)carbonyl]-2-phenyl-3-(phenylmethyl)-4(3H)-pyrimidinone], the pest or weed control at 250 g/ha in assay [1] (setting [5]) came out at 0%; in assay [2] (setting [5]), 75%; in assay [4] (setting [5]), 60%. For the same compound, the pest or weed control at 31 g/ha in assay [1] (setting [9]) turned out to be 0%; in assay [2] (setting [9]), 60%; in assay [4] (setting [9]), 0%. Moreover, the pest or weed control at 62 g/ha was 0% in assay [1] (setting [10]), 60% in assay [2] (setting [10]) and 40% in assay [4] (setting [10]). The pest or weed control at 125 g/ha in assay [1] (setting [7]) worked out at 0%; in assay [2] (setting [7]), 65%; in assay [4] (setting [7]), 50%. Also, the plant injury at 250 g/ha in assay [3] (setting [5]) is 15%. For the same compound, the plant injury at 31 g/ha in assay [3] (setting [9]) came out at 0%. In addition, the plant injury at 62 g/ha in assay [3] (setting [10]) was found to be 0%. Besides, the plant injury at 125 g/ha in assay [3] (setting [7]) worked out at 0%.
